The supplement of paper PMC10307832

Columns and labels:
Assay in all cases: relative viability (nuclei count vs DMSO), 5 days (fraction); higher = more cells survive
[1] = compound: CN(C)CC1=CC(=CC=C1)N=C(C2=CC=CC=C2)C3=C(NC4=C3C=CC(=C4)C(=O)N(C)C)O + O=C(CCCCCCC(=O)Nc1ccccc1)NO [Vorinostat] (partner 1 µM)
In short: (§1)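 A single step with final 0.05% Triton X-100, 1% formaldehyde and 1 ug/ml Hoechst fixed the cells and stained nuclei 5 days after treatment. Lung cancer cell lines in 1536-well plates had been treated by pin tool the day after seeding with one drug alone or a fixed anchor-drug dose plus five library-drug doses (not always all listed) in √10 steps, and nuclei were counted on 4× images. Relative viability is the ratio of nuclei in treated wells to nuclei in vehicle wells, taken as the median of duplicate plates.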

[2] = compound: CN(C)CC1=CC(=CC=C1)N=C(C2=CC=CC=C2)C3=C(NC4=C3C=CC(=C4)C(=O)N(C)C)O + Cc1nc(NC(=O)N2CCC[C@H]2C(N)=O)sc1-c1ccnc(C(C)(C)C(F)(F)F)c1 [Alpelisib] (partner 2 µM)
In short: as §1

[3] = compound: CN(C)CC1=CC(=CC=C1)N=C(C2=CC=CC=C2)C3=C(NC4=C3C=CC(=C4)C(=O)N(C)C)O + CC1(C)CCC(c2ccc(Cl)cc2)=C(CN2CCN(c3ccc(C(=O)NS(=O)(=O)c4ccc(N[C@H](CCN5CCOCC5)CSc5ccccc5)c(S(=O)(=O)C(F)(F)F)c4)cc3)CC2)C1 [Navitoclax] (partner 0.5 µM)
In short: as §1

[4] = compound: CN(C)CC1=CC(=CC=C1)N=C(C2=CC=CC=C2)C3=C(NC4=C3C=CC(=C4)C(=O)N(C)C)O + C[C@]1(O)C[C@@H](c2nc(-c3ccc4ccc(-c5ccccc5)nc4c3)c3c(N)nccn32)C1 [Linsitinib] (partner 1 µM)
In short: as §1

Row | Cell Line | relative viability ([1]; first compound 0.08 µM) | relative viability ([1]; first compound 0.253 µM) | relative viability ([1]; first compound 0.8 µM) | relative viability ([1]; first compound 2.53 µM) | relative viability ([1]; first compound 8 µM) | relative viability ([2]; first compound 0.08 µM) | relative viability ([2]; first compound 0.253 µM) | relative viability ([2]; first compound 0.8 µM) | relative viability ([2]; first compound 2.53 µM) | relative viability ([2]; first compound 8 µM) | relative viability ([3]; first compound 0.08 µM) | relative viability ([3]; first compound 0.253 µM) | relative viability ([3]; first compound 0.8 µM) | relative viability ([3]; first compound 2.53 µM) | relative viability ([3]; first compound 8 µM) | relative viability ([4]; first compound 0.08 µM) | relative viability ([4]; first compound 0.253 µM) | relative viability ([4]; first compound 0.8 µM) | relative viability ([4]; first compound 2.53 µM) | relative viability ([4]; first compound 8 µM)
1 | LCLC-97TM1 | 0.683 | 0.728 | 0.728 | 0.623 | 0.551 | 0.286 | 0.203 | 0.293 | 0.324 | 0.343 | 0.325 | 0.276 | 0.362 | 0.395 | 0.734 | 0.212 | 0.193 | 0.179 | 0.148 | 0.231
2 | HCC-366 | 0.471 | 0.369 | 0.458 | 0.299 | 0.473 | 0.397 | 0.386 | 0.42 | 0.393 | 0.344 | 0.969 | 1.03 | 1.07 | 1.07 | 0.901 | 0.737 | 0.602 | 0.657 | 0.473 | 0.354
3 | NCI-H322M | 0.8 | 0.957 | 0.874 | 0.743 | 0.67 | 0.768 | 0.714 | 0.695 | 0.797 | 0.708 | 1.18 | 1.13 | 1.07 | 1.06 | 1.15 | 1.04 | 0.816 | 0.677 | 0.887 | 0.707
4 | NCI-H1355 | 0.633 | 0.688 | 0.558 | 0.608 | 0.576 | 0.802 | 0.724 | 0.681 | 0.838 | 0.849 | 1.01 | 0.87 | 0.836 | 0.93 | 0.866 | 0.849 | 0.885 | 0.656 | 0.774 | 0.762
5 | COR-L 105 | 0.782 | 0.81 | 0.753 | 1.1 | 0.66 | 0.844 | 0.892 | 1.01 | 0.813 | 0.808 | 0.664 | 0.795 | 0.762 | 0.733 | 0.562 | 0.888 | 0.838 | 1.1 | 1.02 | 0.805
6 | NCI-H1915 | 0.528 | 0.512 | 0.501 | 0.516 | 0.415 | 1.12 | 1.05 | 1.11 | 1.05 | 1.02 | 0.819 | 0.75 | 0.782 | 0.791 | 0.805 | 1.09 | 1.12 | 1.15 | 1.02 | 1.11
7 | NCI-H2126 | 0.822 | 0.767 | 0.475 | 0.8 | 0.554 | 0.806 | 0.784 | 0.751 | 0.762 | 0.779 | 0.899 | 0.898 | 0.821 | 0.913 | 0.892 | 0.701 | 0.668 | 0.679 | 0.759 | 0.686
8 | HARA | 0.6 | 0.528 | 0.433 | 0.715 | 0.487 | 0.79 | 0.824 | 0.715 | 0.788 | 0.713 | 1.14 | 1.14 | 1.18 | 1.15 | 1.13 | 0.965 | 1.04 | 0.865 | 0.921 | 0.715
